The text below walks through data of patent publication US8173689B2 (Novartis AG, priority 2006, dated 2012).

Molecules are shown by their SMILES. Where two headings read alike, the source gives them in different places.

For assay [1], the target named is T1, cytoplasmic domain of the human CSF-1R (Homo sapiens, UniProt P07333).
T1 construct: Recombinant protein corresponding to the cytoplasmic domain of the human CSF-1R; purchased Invitrogen Corporation, Carlsbad, Calif; PV3249
T1 sequence (P07333 539-972 limits assumed): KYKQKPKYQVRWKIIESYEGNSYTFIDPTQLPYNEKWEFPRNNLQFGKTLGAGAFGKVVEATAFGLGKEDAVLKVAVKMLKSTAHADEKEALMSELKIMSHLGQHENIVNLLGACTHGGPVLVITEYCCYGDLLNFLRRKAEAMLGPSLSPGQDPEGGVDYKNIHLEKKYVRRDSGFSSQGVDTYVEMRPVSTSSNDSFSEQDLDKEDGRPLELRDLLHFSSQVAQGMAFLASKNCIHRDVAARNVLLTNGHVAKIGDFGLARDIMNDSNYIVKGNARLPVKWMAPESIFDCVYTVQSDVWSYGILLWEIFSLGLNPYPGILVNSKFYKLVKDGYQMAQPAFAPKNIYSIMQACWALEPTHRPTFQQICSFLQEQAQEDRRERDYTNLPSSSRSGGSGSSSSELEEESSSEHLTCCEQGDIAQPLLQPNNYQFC
As to the kind of experiment: In vitro kinase assay for colony stimulating factor-1 receptor (AlphaScreen). Type of assay: biochemical. The following applies: tested at about 1 μM, read-out: CSF-1R percent inhibition. An outline of the steps:
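At a low ATP level of 1 μM, phosphate transfer by the cytoplasmic-domain kinase (4 nM) was quantified with an AlphaScreen anti-phosphotyrosine bead pair.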

In a further assay the target is T2, kinase domain of cKIT (Homo sapiens, UniProt P10721).
T2 construct: The kinase domain of cKIT was assayed in 50 mM Hepes; purchased Upstate 14-559
T2 sequence (P10721 589-937 limits assumed): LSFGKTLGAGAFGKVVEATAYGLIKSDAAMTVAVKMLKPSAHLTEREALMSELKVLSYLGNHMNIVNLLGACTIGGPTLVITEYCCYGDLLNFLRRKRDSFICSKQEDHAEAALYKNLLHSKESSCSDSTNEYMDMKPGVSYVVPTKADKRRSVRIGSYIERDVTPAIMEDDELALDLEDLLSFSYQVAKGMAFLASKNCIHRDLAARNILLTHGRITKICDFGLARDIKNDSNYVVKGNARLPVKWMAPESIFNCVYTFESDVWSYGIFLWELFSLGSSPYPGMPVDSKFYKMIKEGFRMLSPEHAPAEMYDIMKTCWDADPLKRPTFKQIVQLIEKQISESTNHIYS
As to the kind of experiment: Inhibition of cKIT kinase signaling in an in vitro biochemical assay (alphascreen). The note with it: tested at about 1 μM, read-out: cKit percent inhibition.

The next assay concerns the target T3, kinase domain of PDGFRβ (Homo sapiens, UniProt P09619).
T3 construct: The kinase domain of PDGFRβ was assayed in 50 mM Hepes; purchased Invitrogen P3082
The assay is described as follows: Inhibition of PDGFRb kinase signaling in an in vitro biochemical assay (alphascreen). The note with it: tested at about 1 μM, read-out: PDGFRβ percent inhibition.

For assay [2], the system named is MNFS60 (murine AML cells). As to the kind of experiment: Cell viability assay in MCSF dependent MNFS60 cells (Cell Titer Glo). Type of assay: cell-based. The following applies: Mus musculus, tested at about 1 μM, read-out: M-NFS-60 CP percent inhibition. The procedure, abridged: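 Cells are cultured with 10 ng/ml MCSF and test compound for 72 hrs at 37° C. in 5% CO2. CellTiter-Glo reagent is then added to gauge viable cell number, and EC50s are fitted from triplicates.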

T3 sequence (P09619 600-962 limits assumed): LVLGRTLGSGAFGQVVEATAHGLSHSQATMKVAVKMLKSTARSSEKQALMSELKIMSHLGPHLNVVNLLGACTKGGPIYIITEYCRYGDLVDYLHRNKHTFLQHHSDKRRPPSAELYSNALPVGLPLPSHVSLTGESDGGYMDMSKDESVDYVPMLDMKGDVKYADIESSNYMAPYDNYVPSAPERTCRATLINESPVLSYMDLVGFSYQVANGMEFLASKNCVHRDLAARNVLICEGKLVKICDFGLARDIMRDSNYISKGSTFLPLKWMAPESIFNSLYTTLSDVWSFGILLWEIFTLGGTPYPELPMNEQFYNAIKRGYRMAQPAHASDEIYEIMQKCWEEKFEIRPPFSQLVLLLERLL

With `CNC(=O)c1cc(Oc2ccc3nc(NCc4ccc(S(N)(=O)=O)cc4)sc3c2)ccn1` [Compound 161, 4-[2-(4-Sulfonamido-benzyl-amino)-benzothiazol-6-yloxy]-pyridine-2-carboxylic acid methylamide], the inhibition at 1 µM is 100% in assay [1], 0% at kinase domain of cKIT, 94% on kinase domain of PDGFRβ and 38% in assay [2] (MNFS60 cells).

Take `O[C@@H]1Cc2ccccc2[C@@H]1Nc1nc2ccc(Oc3ccnc4ccccc34)cc2s1` [Example 239, (1S,2R)-1-(6-(quinolin-4-yloxy)benzo[d]thiazol-2-ylamino)-2,3-dihydro-1H-inden-2-ol]: the inhibition at 1 µM in assay [1] (compounds of Table 3) was determined as 100%; on kinase domain of cKIT (compounds of Table 3), 100%; on kinase domain of PDGFRβ (compounds of Table 3) it was 25%; in assay [2] (compounds of Table 3) it was 90%.

With `Fc1cc2nccc(Oc3ccc4nc(NCC5CCCCC5)sc4c3)c2cc1F` [Example 211], the inhibition at 1 µM in assay [1] (compounds of Table 3) was 100%; on kinase domain of cKIT (compounds of Table 3), 85%; on kinase domain of PDGFRβ (compounds of Table 3), 50%; in assay [2] (compounds of Table 3), 23%.

With `CNC(=O)c1cc(Oc2ccc3nc(NCc4ccccc4)sc3c2)ccn1` [Compound 138], the inhibition at 1 µM was 100% in assay [1] (compounds of Table 3), 100% on kinase domain of cKIT (compounds of Table 3), 37% at kinase domain of PDGFRβ (compounds of Table 3) and 105% in assay [2] (compounds of Table 3).

As to `CC(C)C[C@@H](CO)Nc1nc2ccc(Oc3ccnc(-c4cnn(C)c4)c3)cc2s1` [Example 358, (S)-4-methyl-2-(6-(2-(1-methyl-1H-pyrazol-4-yl)pyridin-4-yloxy)benzo[d]thiazol-2-ylamino)pentan-1-ol], the inhibition at 1 µM in assay [1] came out at 100%; on kinase domain of cKIT, 100%; on kinase domain of PDGFRβ, 99%; in assay [2] (MCSF dependent MNFS60 cells) it was 100%.

Take `CNc1cc(Oc2ccc3nc(NCC4CCCCC4)sc3c2)ccn1` [Example 338, N-(cyclohexylmethyl)-6-(2-(methylamino)pyridin-4-yloxy)benzo[d]thiazol-2-amine]: the inhibition at 1 µM worked out at 100% in assay [1], 51% at kinase domain of cKIT, 52% at kinase domain of PDGFRβ and 44% in assay [2] (MCSF dependent MNFS60 cells).

On to `CNC(=O)c1cc(Oc2ccc3nc(N[C@@H]4CCCC[C@H]4O)sc3c2C)ccn1` [Example 377, 4-(2-((1R,2R)-2-hydroxycyclohexylamino)-7-methylbenzo[d]thiazol-6-yloxy)-N-methylpicolinamide], for which the inhibition at 1 µM in assay [1] worked out at 100%; on kinase domain of cKIT, 75%; at kinase domain of PDGFRβ it was 49%; in assay [2] (MCSF dependent MNFS60 cells) it was 93%.

As for `FC(F)Oc1ccccc1CNc1nc2ccc(Oc3ccnc4ccccc34)cc2s1` [Example 246, N-(2-(difluoromethoxy)benzyl)-6-(quinolin-4-yloxy)benzo[d]thiazol-2-amine], the inhibition at 1 µM in assay [1] (compounds of Table 3) was found to be 100%; on kinase domain of cKIT (compounds of Table 3) it was 100%; on kinase domain of PDGFRβ (compounds of Table 3), 82%; in assay [2] (compounds of Table 3) it was 100%.

In the case of `OC[C@@H](Nc1nc2ccc(Oc3ccnc4ccccc34)cc2s1)C1CCCCC1` [Example 236, (S)-2-cyclohexyl-2-(6-(quinolin-4-yloxy)benzo[d]thiazol-2-ylamino)ethanol], the inhibition at 1 µM in assay [1] (compounds of Table 3) stood at 100%; on kinase domain of cKIT (compounds of Table 3), 100%; at kinase domain of PDGFRβ (compounds of Table 3) it was 97%; in assay [2] (compounds of Table 3), 100%.

As to `OC[C@H](CC1CCCCC1)Nc1nc2ccc(Oc3ccnc4ccccc34)cc2s1` [Example 250], the inhibition at 1 µM in assay [1] (compounds of Table 3) came out at 97%; at kinase domain of cKIT (compounds of Table 3), 98%; on kinase domain of PDGFRβ (compounds of Table 3) it was 0%; in assay [2] (compounds of Table 3), 20%.

Consider `CNC(=O)c1cc(Oc2ccc3nc(NCc4cc(F)ccc4OC)oc3c2)ccn1` [Compound 115, 4-[2-(5-Fluoro-2-methoxy-benzylamino)-benzooxazol-6-yloxy]-pyridine-2-carboxylic acid methylamide], for which the inhibition at 1 µM in assay [1] was 99%; on kinase domain of cKIT, 88%; on kinase domain of PDGFRβ, 18%; in assay [2] (MNFS60 cells), 21%.

As for `CNC(=O)c1cc(Oc2ccc3nc(NCc4ccc(F)cc4F)oc3c2)ccn1` [Compound 71, 4-[2-(2,4-Difluoro-benzylamino)-benzooxazol-6-yloxy]-pyridine-2-carboxylic acid methylamide], the inhibition at 1 µM in assay [1] was determined as 100%; at kinase domain of cKIT, 27%; on kinase domain of PDGFRβ, 0%; in assay [2] (MNFS60 cells) it was 11%.

In the case of `COCCNC(=O)c1cc(Oc2ccc3nc(NCC4CCCCC4)sc3c2)ccn1` [Compound 159, 4-(2-(cyclohexylmethyl-amino)benzothiazol-6-yloxy)-N-(2-methox.ylethyl)-pyridine-2-carboxamide], the inhibition at 1 µM in assay [1] was determined as 99%; on kinase domain of cKIT, 12%; at kinase domain of PDGFRβ, 1%; in assay [2] (MNFS60 cells), 17%.

Regarding `CNC(=O)c1cc(Oc2ccc3nc(N[C@H](C)C(C)C)sc3c2)ccn1` [Compound 149], the inhibition at 1 µM in assay [1] (compounds of Table 3) amounted to 100%; at kinase domain of cKIT (compounds of Table 3) it was 29%; on kinase domain of PDGFRβ (compounds of Table 3), 21%; in assay [2] (compounds of Table 3), 48%.

For the compound `CC(C)C[C@@H](CO)Nc1nc2ccc(Oc3ccnc4ccccc34)cc2s1` [Example 238, (S)-4-methyl-2-(6-(quinolin-4-yloxy)benzo[d]thiazol-2-ylamino)pentan-1-ol], the inhibition at 1 µM was determined as 100% in assay [1] (compounds of Table 3), 100% at kinase domain of cKIT (compounds of Table 3), 90% at kinase domain of PDGFRβ (compounds of Table 3) and 100% in assay [2] (compounds of Table 3).

In the case of `Cc1cc(Oc2ccc3nc(NCC4CCCCC4)sc3c2)ccn1` [Example 202], the inhibition at 1 µM stood at 100% in assay [1] (compounds of Table 3), 32% on kinase domain of cKIT (compounds of Table 3), 19% at kinase domain of PDGFRβ (compounds of Table 3) and 17% in assay [2] (compounds of Table 3).

As for `CNC(=O)c1cc(Oc2ccc3nc(NCc4c(F)cccc4OC)oc3c2)ccn1` [Compound 116, 4-[2-(2-Fluoro-6-methoxy-benzylamino)-benzooxazol-6-yloxy]-pyridine-2-carboxylic acid methylamide], the inhibition at 1 µM was 100% in assay [1], 100% on kinase domain of cKIT, 18% at kinase domain of PDGFRβ and 10% in assay [2] (MNFS60 cells).

As for `CCc1nc(-c2cc(Oc3ccc4nc(N[C@@H](C)C5CCCCC5)sc4c3)ccn2)[nH]c1CC` [Example 272, (S)-N-(1-cyclohexylethyl)-6-(2-(4,5-diethyl-1H-imidazol-2-yl)pyridin-4-yloxy)benzo[d]thiazol-2-amine], the inhibition at 1 µM in assay [1] (compounds of Table 3) came to 98%; on kinase domain of cKIT (compounds of Table 3), 24%; at kinase domain of PDGFRβ (compounds of Table 3), 7%; in assay [2] (compounds of Table 3), 38%.

Take `CNC(=O)c1cc(Oc2cc(Cl)c3nc(NCC4CCCCC4)sc3c2)ccn1` [Example 375, 4-(4-chloro-2-(cyclohexylmethylamino)benzo[d]thiazol-6-yloxy)-N-methylpicolinamide]: the inhibition at 1 µM in assay [1] was 100%; on kinase domain of cKIT it was 97%; on kinase domain of PDGFRβ it was 38%; in assay [2] (MCSF dependent MNFS60 cells), 19%.

For `CNC(=O)c1cc(Oc2ccc3nc(NCC4CCCN(C(C)=O)C4)sc3c2)ccn1` (stereo not drawn) [Example 306, 4-(2-((1-acetylpiperidin-3-yl)methylamino)benzo[d]thiazol-6-yloxy)-N-methylpicolinamide], the inhibition at 1 µM was 99% in assay [1], 6% on kinase domain of cKIT, 0% on kinase domain of PDGFRβ and 48% in assay [2] (MCSF dependent MNFS60 cells).

As for `CNC(=O)c1cc(Oc2ccc3nc(NCc4cc(OC)ccc4F)oc3c2)ccn1` [Compound 73, 4-[2-(2-Fluoro-5-methoxy-benzylamino)-benzooxazol-6-yloxy]-pyridine-2-carboxylic acid methylamide], the inhibition at 1 µM was determined as 100% in assay [1], 21% at kinase domain of cKIT, 2% at kinase domain of PDGFRβ and 0% in assay [2] (MNFS60 cells).
